Source: paper PMC10484922, “Discovery of a selective and biologically active low-molecular weight antagonist of human interleukin-1β” (Nature Communications, 2023)
Where “and” joins values, the source holds several entries; their conditions need not be identical. Identical values can stand only once.

Experiments:
[1] = biological target: IL-1β (Homo sapiens, UniProt P01584); assay: protein-observed 1H-13C-HMQC NMR binding (I/Io of Leu60 Cδ1H3); design: Mature hIL-1β was expressed in Escherichia coli; made in house; host or cells: Escherichia coli BL21 (DE3), pET17b
Protocol: ^1H–^13C- and ^1H–^15N-HMQC spectra were recorded on Bruker AVANCE 600 MHz and 800 MHz spectrometers equipped with TXI-cryocooled probeheads. In ligand binding experiments, protein concentrations were typically 50 μM in PBS, pH 7.4. Backbone assignments of hIL-1β in the ligand-bound state and unliganded state were obtained by a combination of a 3D triple resonance experiment HNCACB and a ^15N-edited NOESY spectrum, which were processed using TOPSPIN 3.2 and analyzed using CcpNmr AnalysisAssign 3.1.0[46]. ^15N-CEST experiments were run at weak B1 radiofrequency fields of 25 and 12.5 Hz on a Bruker AVANCE 800 MHz spectrometer with 113 increments and a total sweep width of 28 ppm in the pseudo-3D dimension. Peak intensities were extracted by fitting pseudo-Voigt lineshape models using peakipy (https://github.com/j-brady/peakipy). Fitted peak intensities were subsequently used to generate CEST profiles, and exchange parameters were fitted using ChemEx (https://github.com/gbouvignies/ChemEx).
Supplementary Figure 2. 13C-NMR and 19F-NMR reporter assays to monitor early
13C-HMQC spectra of hIL-1b (50 µM) were acquired in the presence (red) and absence (blue) of 500
µM compound and rows were extracted at the w1-frequency of the peak corresponding to Leu60 […]

[2] = biological target: T1, IL-1α (Homo sapiens, UniProt P01583); assay: TR-FRET IL-1α/hIL-1R1 receptor displacement assay; format: biochemical; details: read-out: TR-FRET IL-1α IC50
T1 sequence (P01583 113-271): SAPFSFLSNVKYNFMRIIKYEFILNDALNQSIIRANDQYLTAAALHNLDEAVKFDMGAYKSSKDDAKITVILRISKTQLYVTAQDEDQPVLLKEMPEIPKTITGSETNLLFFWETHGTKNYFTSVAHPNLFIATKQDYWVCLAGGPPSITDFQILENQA
Protocol: After 1 h incubation at room temperature, hIL-1R1 (1–332; Alexa 647 labeled; 50 nM final concentration) and anti-His-Europium W1024 (Perkin Elmer; Cat.No. AD0401, 1 nM final concentration) were added to a final volume of 10 μl per well. After 1 h of incubation at room temperature, time-resolved fluorescence was measured at λexc = 320 ± 20 nm, λem = 620 ± 25 nm/665 ± 25 nm using a Pherastar FSX plate reader. All experiments were run in triplicates. The data provided a typical saturation-binding curve, and the IC50 values were calculated by fitting the results to the Hill equation using Prism 7.0 and the in-house software Helios.

[3] = tested on: HEK-Blue IL-1β cells stimulated with hIL-1α; assay: HEK293 reporter gene assay, hIL-1α as trigger; format: cell-based, human; details: inhibitor 3nM
Protocol: (§1) We used HEK-Blue™ IL-1β cells that respond specifically to IL-1 (# hkb-il1b, InvivoGen). These cells can detect IL-1α and IL-1β, as these cytokines bind to the same receptor, IL-1R1. They express a Seap reporter gene under the control of the IFN-β minimal promoter fused to five NF-kappaB and five AP-1 binding sites. Thirty microliters (300,000 cells/ml) per well of a 384-well plate were plated overnight. Cells were then stimulated with graded concentrations of cytokines (hIL-1α or hIL-1β) in the absence or presence of canakinumab (Ilaris®, ILARI LYVI 150MG 22GLW.012, batch U003 0409)[22], anakinra (Kineret®, 100 mg/0.67 ml injectable solution, Sobi)[23], or compound (S)-2 (compounds were pre-mixed for 1 h with the cytokine prior to addition to cells) and further incubated overnight before assessment of Seap activity.

[4] = tested on: normal human dermal fibroblasts stimulated with hIL-1β; assay: Human fibroblast IL-6 release assay, hIL-1β stimulated; format: cell-based; design: IL-6, average / inhibition, replicates of EXP1, EXP2, EXP3 / inhibition, Mean / IL-1beta (mean, SD): mean readout (IL-6 release): unit not given here; details: for Mean OD (OD 450nm) / IL-1beta (mean, SD): mean readout (IL-6 release): Figure 3c; for Mean OD (OD 450nm): compound 1 nM; for IL-1beta (mean, SD): mean readout (IL-6 release): compound @ 1nM
Protocol: as §1
(§2) Normal human dermal fibroblasts (NHDF) from Clonetics^TM (LONZA, Cat # CC-2509 (NHDF-Neo), Lot # 0000234242, used at passage ≤14) were seeded at a density of 5000 cells/well in 100 μL of culture medium using 96-well plates (flat bottom, TCT). Treatment with cytokines/compounds was performed as described above. Cells were incubated for another 6 h and were subsequently spun down (320g/3 min). IL-6 was measured in the supernatant by ELISA (BioLegend, # 430503) or HTRF (Cisbio, #62HIL06PEH).

[5] = tested on: normal human dermal fibroblasts stimulated with hIL-1α; assay: Human fibroblast IL-6 release assay, hIL-1α stimulated; format: cell-based; design: IL-1alpha (mean, SD): mean readout (IL-6 release): unit not given here; details: for Mean OD (OD 450nm) / IL-1alpha (mean, SD): mean readout (IL-6 release): Figure 3c; for Mean OD (OD 450nm): compound 1 nM; for IL-1alpha (mean, SD): mean readout (IL-6 release): compound @ 1nM
Protocol: as §1, §2

[6] = tested on: HEK-Blue IL-1β cells stimulated with hIL-1β; assay: HEK293 reporter gene assay, hIL-1β as trigger; format: cell-based, human; details: inhibitor 3nM
Protocol: as §1

Sequence of IL-1β (P01584 117-269): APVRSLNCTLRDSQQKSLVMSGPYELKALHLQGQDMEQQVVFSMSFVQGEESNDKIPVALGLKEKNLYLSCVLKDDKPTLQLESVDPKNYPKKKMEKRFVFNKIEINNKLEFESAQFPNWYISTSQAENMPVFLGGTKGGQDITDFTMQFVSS

Molecule: O=C1Nc2cc(C(F)(F)F)ccc2C1(O)c1cc(Cl)ccc1O (stereo not shown) [Compound 1]
- binding to hIL-1β by protein-observed NMR [1]: validated as a binder by 2D NMR
- NMR I/Io values, individual experiments (Exp1-2) ([1]; source data): 0.39 and 0.31
- IC50 [2]: > 200 µM

Molecule: O=C1Nc2cc(C(F)(F)F)ccc2[C@@]1(O)c1cc(Cl)ccc1O [Compound (R)-1]
- binding to hIL-1β by protein-observed NMR [1]: only enantiomer (S)-1 showed binding to the protein

Molecule: O=C1Nc2cc(C(F)(F)F)ccc2[C@]1(O)c1cc(Cl)ccc1O [Compound (S)-1]
- IC50 [2]: > 200 µM

Molecule: anakinra: IL-1R1 antagonist [reference compound]
- reporter gene assay signal, mean (Figure 3d) ([3]; IL-1alpha 3.04596 pg/ml): 0.06
- reporter gene assay signal, mean (Figure 3d) ([3]; IL-1alpha 6.09192 pg/ml): 0.06
- reporter gene assay signal, mean (Figure 3d) ([3]; IL-1alpha 12.1838 pg/ml): 0.06
- reporter gene assay signal, mean (Figure 3d) ([3]; IL-1alpha 24.3677 pg/ml): 0.06
- reporter gene assay signal, mean (Figure 3d) ([3]; IL-1alpha 48.7353 pg/ml): 0.06
- reporter gene assay signal, mean (Figure 3d) ([3]; IL-1alpha 97.4707 pg/ml): 0.06
- reporter gene assay signal, mean (Figure 3d) ([3]; IL-1alpha 194.941 pg/ml): 0.07
- reporter gene assay signal, mean (Figure 3d) ([3]; IL-1alpha 389.883 pg/ml): 0.08
- reporter gene assay signal, mean (Figure 3d) ([3]; IL-1alpha 779.766 pg/ml): 0.09
- reporter gene assay signal, mean (Figure 3d) ([3]; IL-1alpha 1559.53 pg/ml): 0.15
- reporter gene assay signal, mean (Figure 3d) ([3]; IL-1alpha 3119.06 pg/ml): 0.24
- reporter gene assay signal, mean (Figure 3d) ([3]; IL-1alpha 6238.12 pg/ml): 0.46
- reporter gene assay signal, mean (Figure 3d) ([3]; IL-1alpha 12476.2 pg/ml): 0.84
- reporter gene assay signal, mean (Figure 3d) ([3]; IL-1alpha 24952.5 pg/ml): 1.11
- reporter gene assay signal, mean (Figure 3d) ([3]; IL-1alpha 49905 pg/ml): 1.47
- block of hIL-1β driven IL-6 release [4]: could block the release of IL-6
- Mean OD (OD 450nm) ([4]; hu IL-1b 0 pg/mL): 0.034
- IL-1beta (mean, SD): mean readout (IL-6 release) ([4]; hu IL-1b 0 pg/mL): 0
- Mean OD (OD 450nm) ([4]; hu IL-1b 40 pg/mL): 0.047
- IL-1beta (mean, SD): mean readout (IL-6 release) ([4]; hu IL-1b 40 pg/mL): 0
- Mean OD (OD 450nm) ([4]; hu IL-1b 80 pg/mL): 0.079
- IL-1beta (mean, SD): mean readout (IL-6 release) ([4]; hu IL-1b 80 pg/mL): 0
- Mean OD (OD 450nm) ([4]; hu IL-1b 120 pg/mL): 0.102
- IL-1beta (mean, SD): mean readout (IL-6 release) ([4]; hu IL-1b 120 pg/mL): 0
- Mean OD (OD 450nm) ([4]; hu IL-1b 160 pg/mL): 0.157
- IL-1beta (mean, SD): mean readout (IL-6 release) ([4]; hu IL-1b 160 pg/mL): 404.5
- Mean OD (OD 450nm) ([4]; hu IL-1b 200 pg/mL): 0.162
- IL-1beta (mean, SD): mean readout (IL-6 release) ([4]; hu IL-1b 200 pg/mL): 439.1
- effect on hIL-1α driven IL-6 release [5]: could block the release of IL-6
- Mean OD (OD 450nm) ([5]; hu IL-1A 0 pg/mL): 0.042
- Mean OD (OD 450nm) ([5]; hu IL-1A 40 pg/mL): 0.05
- Mean OD (OD 450nm) ([5]; hu IL-1A 80 pg/mL): 0.061
- Mean OD (OD 450nm) ([5]; hu IL-1A 120 pg/mL): 0.067
- Mean OD (OD 450nm) ([5]; hu IL-1A 160 pg/mL): 0.073
- Mean OD (OD 450nm) ([5]; hu IL-1A 200 pg/mL): 0.103
- IL-1alpha (mean, SD): mean readout (IL-6 release) ([5]; hu IL-1a 0 pg/mL): 0
- IL-1alpha (mean, SD): mean readout (IL-6 release) ([5]; hu IL-1a 40 pg/mL): 0
- IL-1alpha (mean, SD): mean readout (IL-6 release) ([5]; hu IL-1a 80 pg/mL): 0
- IL-1alpha (mean, SD): mean readout (IL-6 release) ([5]; hu IL-1a 120 pg/mL): 0
- IL-1alpha (mean, SD): mean readout (IL-6 release) ([5]; hu IL-1a 160 pg/mL): 0
- IL-1alpha (mean, SD): mean readout (IL-6 release) ([5]; hu IL-1a 200 pg/mL): 3.7
- reporter gene assay signal, mean (Figure 3d) ([6]; IL-1beta 3.04596 pg/ml): 0.06
- reporter gene assay signal, mean (Figure 3d) ([6]; IL-1beta 6.09192 pg/ml): 0.06
- reporter gene assay signal, mean (Figure 3d) ([6]; IL-1beta 12.1838 pg/ml): 0.06
- reporter gene assay signal, mean (Figure 3d) ([6]; IL-1beta 24.3677 pg/ml): 0.06
- reporter gene assay signal, mean (Figure 3d) ([6]; IL-1beta 48.7353 pg/ml): 0.06
- reporter gene assay signal, mean (Figure 3d) ([6]; IL-1beta 97.4707 pg/ml): 0.07
- reporter gene assay signal, mean (Figure 3d) ([6]; IL-1beta 194.941 pg/ml): 0.08
- reporter gene assay signal, mean (Figure 3d) ([6]; IL-1beta 389.883 pg/ml): 0.09
- reporter gene assay signal, mean (Figure 3d) ([6]; IL-1beta 779.766 pg/ml): 0.17
- reporter gene assay signal, mean (Figure 3d) ([6]; IL-1beta 1559.53 pg/ml): 0.37
- reporter gene assay signal, mean (Figure 3d) ([6]; IL-1beta 3119.06 pg/ml): 0.68
- reporter gene assay signal, mean (Figure 3d) ([6]; IL-1beta 6238.12 pg/ml): 1.15
- reporter gene assay signal, mean (Figure 3d) ([6]; IL-1beta 12476.2 pg/ml): 1.43
- reporter gene assay signal, mean (Figure 3d) ([6]; IL-1beta 24952.5 pg/ml): 1.66
- reporter gene assay signal, mean (Figure 3d) ([6]; IL-1beta 49905 pg/ml): 1.81
